Reference: PubChem BioAssay (NCI)
Where “and” joins values, the source holds several entries; their conditions need not be identical. Equal entries are not always repeated.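 Cells were grown in 96-well plates and exposed to each compound for 48 hours at five concentrations; endpoints were interpolated linearly between bracketing concentrations, or set to the highest concentration if not reached. At the GI50, growth is halved. TGI: total growth inhibition.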

How the values were obtained:
Assay in all cases: NCI tumour cell line growth inhibition, 48 h
IGROV1 ovarian = tested on: IGROV1 ovarian
SN12C renal = tested on: SN12C renal
SF-295 CNS = tested on: SF-295 CNS
RXF 393 renal = tested on: RXF 393 renal
HOP-18 NSCLC = tested on: HOP-18 NSCLC
LOX IMVI melanoma = tested on: LOX IMVI melanoma
NCI-H23 lung = tested on: NCI-H23 lung
SNB-78 CNS = tested on: SNB-78 CNS
T-47D breast = tested on: T-47D breast
ACHN renal = tested on: ACHN renal
CAKI-1 renal = tested on: CAKI-1 renal
MCF7 breast = tested on: MCF7 breast
UO-31 renal = tested on: UO-31 renal
TK-10 renal = tested on: TK-10 renal
SF-539 CNS = tested on: SF-539 CNS
HCT-15 colon = tested on: HCT-15 colon
SF-268 CNS = tested on: SF-268 CNS
HOP-62 NSCLC = tested on: HOP-62 NSCLC
BT-549 breast = tested on: BT-549 breast
NCI/ADR-RES ovarian = tested on: NCI/ADR-RES ovarian
SW-620 colon = tested on: SW-620 colon
OVCAR-8 ovarian = tested on: OVCAR-8 ovarian
DMS 273 small cell lung = tested on: DMS 273 small cell lung
EKVX NSCLC = tested on: EKVX NSCLC
COLO 205 colon = tested on: COLO 205 colon
M14 melanoma = tested on: M14 melanoma
SR leukemia = tested on: SR leukemia
K-562 leukemia = tested on: K-562 leukemia
OVCAR-5 ovarian = tested on: OVCAR-5 ovarian
SNB-75 CNS = tested on: SNB-75 CNS
UACC-257 melanoma = tested on: UACC-257 melanoma
A498 renal = tested on: A498 renal
786-0 renal = tested on: 786-0 renal
SK-MEL-28 melanoma = tested on: SK-MEL-28 melanoma
MDA-MB-435 = tested on: MDA-MB-435
SK-MEL-2 melanoma = tested on: SK-MEL-2 melanoma
RXF-631 renal = tested on: RXF-631 renal
DMS 114 small cell lung = tested on: DMS 114 small cell lung
HT29 colon = tested on: HT29 colon
MALME-3M melanoma = tested on: MALME-3M melanoma
DU-145 prostate = tested on: DU-145 prostate
SK-OV-3 ovarian = tested on: SK-OV-3 ovarian
OVCAR-3 ovarian = tested on: OVCAR-3 ovarian
OVCAR-4 ovarian = tested on: OVCAR-4 ovarian
NCI-H522 lung = tested on: NCI-H522 lung
LXFL 529 NSCLC = tested on: LXFL 529 NSCLC
PC-3 prostate = tested on: PC-3 prostate
NCI-H460 lung = tested on: NCI-H460 lung
M19-MEL melanoma = tested on: M19-MEL melanoma
SK-MEL-5 melanoma = tested on: SK-MEL-5 melanoma
HL-60(TB) leukemia = tested on: HL-60(TB) leukemia
KM12 colon = tested on: KM12 colon
MDA-N = tested on: MDA-N
UACC-62 melanoma = tested on: UACC-62 melanoma
CCRF-CEM leukemia = tested on: CCRF-CEM leukemia
SNB-19 CNS = tested on: SNB-19 CNS
U251 CNS = tested on: U251 CNS
A549 NSCLC = tested on: A549 NSCLC
RPMI-8226 leukemia = tested on: RPMI-8226 leukemia
HOP-92 NSCLC = tested on: HOP-92 NSCLC
MOLT-4 leukemia = tested on: MOLT-4 leukemia
HCT-116 colon = tested on: HCT-116 colon
HCC-2998 colon = tested on: HCC-2998 colon
DLD-1 colon = tested on: DLD-1 colon
NCI-H226 lung = tested on: NCI-H226 lung
HS 578T breast = tested on: HS 578T breast
XF 498 CNS = tested on: XF 498 CNS
MDA-MB-231 breast = tested on: MDA-MB-231 breast

In the case of `C/C(=N\NC(=S)N1CCN(c2ccccn2)CC1)c1nccs1`, the GI50 (IGROV1 ovarian) is reported as 0.0817 µM, the TGI (IGROV1 ovarian) is reported as 20.2 µM and the TGI (SN12C renal) is reported as 15.9 µM. It also gave a TGI (SF-295 CNS) of 20.7 µM, a TGI (RXF 393 renal) of 17.4 µM and a TGI (HOP-18 NSCLC) greater than 90.8 µM. The GI50 (LOX IMVI melanoma) was 0.0952 µM, the TGI (LOX IMVI melanoma) was 2.42 µM and the GI50 (NCI-H23 lung) was 0.0643 µM. For the same compound, the TGI (NCI-H23 lung) was 13.8 µM, the TGI (SNB-78 CNS) was 71.4 µM and the GI50 (T-47D breast) was 0.855 µM. For the same compound, the TGI (T-47D breast) was 22.1 µM, the TGI (ACHN renal) was 9.96 µM and the TGI (CAKI-1 renal) was 19.9 µM. For the same compound, the GI50 (MCF7 breast) was 0.377 µM, the TGI (MCF7 breast) was 18.3 µM and the TGI (UO-31 renal) was 14 µM. For the same compound, the TGI (TK-10 renal) was 20 µM, the TGI (SF-539 CNS) was 4.37 µM and the GI50 (HCT-15 colon) was 0.0472 µM. It also gave a TGI (HCT-15 colon) of 21.3 µM, a TGI (SF-268 CNS) greater than 54.2 µM and a TGI (HOP-62 NSCLC) of 16.8 µM. The TGI (BT-549 breast) was 18 µM, the GI50 (NCI/ADR-RES ovarian) was 0.279 µM and the TGI (NCI/ADR-RES ovarian) was 2.56 µM. The TGI (SW-620 colon) was 20.2 µM, the TGI (OVCAR-8 ovarian) was 14.4 µM and the TGI (DMS 273 small cell lung) was 11.4 µM. It also gave a GI50 (EKVX NSCLC) of 0.0334 µM, a TGI (EKVX NSCLC) of 10.6 µM and a GI50 (COLO 205 colon) of 0.0361 µM. The TGI (COLO 205 colon) was 15.3 µM, the TGI (M14 melanoma) was 1.49 µM and the GI50 (SR leukemia) was 0.236 µM. The TGI (SR leukemia) was 4.63 µM, the GI50 (K-562 leukemia) was 0.00649 µM and the TGI (K-562 leukemia) was 6.33 µM. It also gave a GI50 (OVCAR-5 ovarian) of 0.0544 µM, a TGI (OVCAR-5 ovarian) of 27.4 µM and a TGI (SNB-75 CNS) of 19.4 µM. The TGI (UACC-257 melanoma) was 12.8 µM, the TGI (A498 renal) was 17.4 µM and the TGI (786-0 renal) was 13 µM. For the same compound, the TGI (SK-MEL-28 melanoma) was 19.9 µM, the TGI (MDA-MB-435) was 12.8 µM and the TGI (SK-MEL-2 melanoma) was 9.9 µM. For the same compound, the TGI (RXF-631 renal) was 24.2 µM, the TGI (DMS 114 small cell lung) was 0.649 µM and the TGI (HT29 colon) was 33.7 µM. It also gave a TGI (MALME-3M melanoma) of 18.5 µM, a TGI (DU-145 prostate) of 14.1 µM and a TGI (SK-OV-3 ovarian) of 18.3 µM. The GI50 (OVCAR-3 ovarian) was 0.00821 µM and < 0.0205 µM, the TGI (OVCAR-4 ovarian) was 22.5 µM and the GI50 (NCI-H522 lung) was 0.0574 µM and 0.261 µM. It also gave a TGI (NCI-H522 lung) of 16.3 µM, a TGI (LXFL 529 NSCLC) of 22 µM and a GI50 (PC-3 prostate) of 0.525 µM. It also gave a TGI (PC-3 prostate) of 17.4 µM, a TGI (NCI-H460 lung) of 2.3 µM and a TGI (M19-MEL melanoma) of 2.34 µM. The TGI (SK-MEL-5 melanoma) was 6.3 µM, the GI50 (HL-60(TB) leukemia) was 0.00712 µM and the TGI (HL-60(TB) leukemia) was 0.0419 µM and 0.0526 µM. The TGI (KM12 colon) was 18.9 µM, the TGI (MDA-N) was 16.6 µM and the TGI (UACC-62 melanoma) was 0.834 µM. The GI50 (CCRF-CEM leukemia) was 0.00596 µM, the TGI (CCRF-CEM leukemia) was 0.256 µM and the TGI (SNB-19 CNS) was 32.8 µM. For the same compound, the TGI (U251 CNS) was 9.8 µM, the TGI (A549 NSCLC) was 13.3 µM and the GI50 (RPMI-8226 leukemia) was 0.0145 µM. The TGI (RPMI-8226 leukemia) was 23.2 µM, the GI50 (HOP-92 NSCLC) was 0.017 µM and the GI50 (MOLT-4 leukemia) was 0.00504 µM. For the same compound, the TGI (MOLT-4 leukemia) was 22.3 µM, the GI50 (HCT-116 colon) was 0.0156 µM and the TGI (HCT-116 colon) was 20.2 µM. The TGI (HCC-2998 colon) was 14.9 µM, the TGI (DLD-1 colon) was 34.4 µM and the TGI (NCI-H226 lung) was 6.66 µM. It also gave a TGI (HS 578T breast) of 38.3 µM, a TGI (XF 498 CNS) of 32.1 µM and a GI50 (MDA-MB-231 breast) of 0.796 µM. It also gave a TGI (MDA-MB-231 breast) of 20 µM.
